# “And” between values parts separate entries of the source, which are not always exact repeats. Identical values can stand only once.
# Columns and labels:
# S. furcifera adults = assay: Y-tube olfactometer behavioral trials; assay type: in vivo, Sogatella furcifera; conditions: odorant 50 µL/L vs hexane; adults
# Experimental: To test the effect of the rice odorants on the behavior of S. furcifera adults, a glass Y-tube olfactometer (inner diameter 2.0 cm, stem 13 cm, arms 10 cm, angle of arms 60°) according to the previously described ([Wang et al., 2014b]) was employed. An airtight cubic box (70 by 45 by 30 cm) was used to position Y-tube, and the Y-tube was lighted by a 30-W filament lamp 25 cm above it. Air that filtered through activated charcoal and humidified with doubly distilled water was pumped in both arms at a flow rate of 300 mL/min. Two filter paper strips (10 by 1 cm) containing 100 µL odorant source (50 µL/L) and 100 µL control hexane were placed in two holding chambers in the front of the olfactometer, respectively. A S. furcifera adult (2 days after emergence, starved for 0.5 h) was randomly chosen and placed in the stem of the Y-tube. Each insect was given 10 min to choose between the two arms of the Y-tube, the choice was noted if the planthopper reached one-half of the arms’ lengths and stayed in the arm for more than 1 min. Besides, S. furcifera was considered as having no orientation preference. Forty-five individuals were used for each compound, each insect used only once. And the dual-choice experiment was done in an environmentally controlled room (25 ± 1 °C and 50% RH). A Chi-squared test was used to analyze the behavioral assay data by using SPSS19.0 (SPSS Inc., Chicago, IL, USA) software.
# SfurOBP3 = SfurOBP3 (Sogatella furcifera, UniProt V5T818); assay: biochemical; assay type: binding; conditions: for Fluorescence competitive binding assay, fluorescence intensity: OBP3, three replicate columns;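 on Fluorescence competitive binding assay, fluorescence intensity: competitor odorant at 2 to 20 µM with protein and 1-NPN both 2.0 µM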
# Chain of SfurOBP3 (V5T818 entry or part of it): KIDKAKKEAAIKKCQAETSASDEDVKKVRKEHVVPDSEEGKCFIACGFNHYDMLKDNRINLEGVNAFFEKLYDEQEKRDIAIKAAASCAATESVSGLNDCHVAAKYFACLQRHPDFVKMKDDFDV
# Procedure, shortened: (§1)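 Fluorescence competitive binding used 2.0 µM SfurOBP and 2.0 µM 1-NPN reporter in 50 mM Tris-HCl, pH 7.4, with odorants at 2-20 µM. Fluorescence was read 2 min after adding the odorant (excitation 337 nm, emission 390-490 nm), in triplicate. Ki was calculated from IC50 as IC50/(1 + [1-NPN]/K1-NPN).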
# SfurOBP1 = SfurOBP1 (Sogatella furcifera, UniProt V5T8N5); assay: biochemical; assay type: binding; conditions: for Fluorescence competitive binding assay, fluorescence intensity: OBP1, three replicate columns
# Chain of SfurOBP1 (V5T8N5 entry or part of it): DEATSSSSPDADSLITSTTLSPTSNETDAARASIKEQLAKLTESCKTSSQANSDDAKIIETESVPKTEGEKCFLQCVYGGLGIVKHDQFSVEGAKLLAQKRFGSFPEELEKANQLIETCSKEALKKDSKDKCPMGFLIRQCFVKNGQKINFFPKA
# Procedure, shortened: as §1
# SfurOBP2 = SfurOBP2 (Sogatella furcifera, UniProt V5T759); assay: biochemical; assay type: binding
# Chain of SfurOBP2 (V5T759 entry or part of it): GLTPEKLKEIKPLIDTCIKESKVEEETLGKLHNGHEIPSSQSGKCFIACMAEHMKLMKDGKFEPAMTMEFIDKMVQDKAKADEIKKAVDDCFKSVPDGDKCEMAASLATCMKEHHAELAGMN
# Procedure, shortened: as §1
# SfurOBP11 = SfurOBP11 (Sogatella furcifera, UniProt V5T6E3); assay: biochemical; assay type: binding
# Chain of SfurOBP11 (V5T6E3 entry or part of it): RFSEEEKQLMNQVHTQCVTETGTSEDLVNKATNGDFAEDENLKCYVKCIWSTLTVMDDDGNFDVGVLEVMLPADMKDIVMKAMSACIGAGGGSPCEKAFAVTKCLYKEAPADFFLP
# Procedure, shortened: as §1
# 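Wherever Fluorescence competitive binding assay, fluorescence intensity is given: competitor odorant at 2 to 20 µM with protein and 1-NPN both 2.0 µM.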
smiles,measurement,setting,value
CCC/C=C/CO [(E)-2-hexenol],number of insects choosing hexane arm,S. furcifera adults,9
same,number of insects choosing volatilies arm,S. furcifera adults,8
same,number of insects failed (no choice),S. furcifera adults,24
same,IC50,SfurOBP3,> 20 µM
same,"Fluorescence competitive binding assay, fluorescence intensity",SfurOBP3; ligand concentration 2,55419 and 52631 and 56435
same,"Fluorescence competitive binding assay, fluorescence intensity",SfurOBP3; ligand concentration 4,52848 and 53720 and 53070
same,"Fluorescence competitive binding assay, fluorescence intensity",SfurOBP3; ligand concentration 6,56485 and 54348 and 51437
same,"Fluorescence competitive binding assay, fluorescence intensity",SfurOBP3; ligand concentration 8,53820 and 44741 and 53024
same,"Fluorescence competitive binding assay, fluorescence intensity",SfurOBP3; ligand concentration 10,50999 and 49511 and 49866
same,"Fluorescence competitive binding assay, fluorescence intensity",SfurOBP3; ligand concentration 12,51314 and 45497 and 46649
same,"Fluorescence competitive binding assay, fluorescence intensity",SfurOBP3; ligand concentration 14,46992 and 46379 and 46282
same,"Fluorescence competitive binding assay, fluorescence intensity",SfurOBP3; ligand concentration 16,39521 and 39562 and 39433
same,"Fluorescence competitive binding assay, fluorescence intensity",SfurOBP3; ligand concentration 18,45227 and 50180 and 45511
same,"Fluorescence competitive binding assay, fluorescence intensity",SfurOBP3; ligand concentration 20,47692 and 45313 and 40014
same,IC50,SfurOBP1,> 20 µM
same,"Fluorescence competitive binding assay, fluorescence intensity",SfurOBP1; ligand concentration 2 (μM),5821 and 6205 and 6589
same,"Fluorescence competitive binding assay, fluorescence intensity",SfurOBP1; ligand concentration 4 (μM),7444 and 7124 and 7270
same,"Fluorescence competitive binding assay, fluorescence intensity",SfurOBP1; ligand concentration 6 (μM),8585 and 7896 and 9273
same,"Fluorescence competitive binding assay, fluorescence intensity",SfurOBP1; ligand concentration 8 (μM),8091 and 7978 and 7865
same,"Fluorescence competitive binding assay, fluorescence intensity",SfurOBP1; ligand concentration 10 (μM),8122 and 7477 and 6720
same,"Fluorescence competitive binding assay, fluorescence intensity",SfurOBP1; ligand concentration 12 (μM),5971 and 6877 and 6423
same,"Fluorescence competitive binding assay, fluorescence intensity",SfurOBP1; ligand concentration 14 (μM),6112 and 6019 and 6107
same,"Fluorescence competitive binding assay, fluorescence intensity",SfurOBP1; ligand concentration 16 (μM),6252 and 5805 and 6056
same,"Fluorescence competitive binding assay, fluorescence intensity",SfurOBP1; ligand concentration 18 (μM),8503 and 8229 and 10760
same,"Fluorescence competitive binding assay, fluorescence intensity",SfurOBP1; ligand concentration 20 (μM),7495 and 8100 and 7787
same,IC50,SfurOBP2,> 20 µM
same,"Fluorescence competitive binding assay, OBP2 (raw fluorescence reading)","SfurOBP2; ligand concentration 2 (unit not given), replicate column 1 of 3",18290
same,"Fluorescence competitive binding assay, OBP2 (raw fluorescence reading)","SfurOBP2; ligand concentration 2 (unit not given), replicate column 2 of 3",18447
same,"Fluorescence competitive binding assay, OBP2 (raw fluorescence reading)","SfurOBP2; ligand concentration 2 (unit not given), replicate column 3 of 3",18531
same,"Fluorescence competitive binding assay, OBP2 (raw fluorescence reading)","SfurOBP2; ligand concentration 4 (unit not given), replicate column 1 of 3",17418
same,"Fluorescence competitive binding assay, OBP2 (raw fluorescence reading)","SfurOBP2; ligand concentration 4 (unit not given), replicate column 2 of 3",17308
same,"Fluorescence competitive binding assay, OBP2 (raw fluorescence reading)","SfurOBP2; ligand concentration 4 (unit not given), replicate column 3 of 3",17228
same,"Fluorescence competitive binding assay, OBP2 (raw fluorescence reading)","SfurOBP2; ligand concentration 6 (unit not given), replicate column 1 of 3",16794
same,"Fluorescence competitive binding assay, OBP2 (raw fluorescence reading)","SfurOBP2; ligand concentration 6 (unit not given), replicate column 2 of 3",16314
same,"Fluorescence competitive binding assay, OBP2 (raw fluorescence reading)","SfurOBP2; ligand concentration 6 (unit not given), replicate column 3 of 3",16504
same,"Fluorescence competitive binding assay, OBP2 (raw fluorescence reading)","SfurOBP2; ligand concentration 8 (unit not given), replicate column 1 of 3",15464
same,"Fluorescence competitive binding assay, OBP2 (raw fluorescence reading)","SfurOBP2; ligand concentration 8 (unit not given), replicate column 2 of 3",15780
same,"Fluorescence competitive binding assay, OBP2 (raw fluorescence reading)","SfurOBP2; ligand concentration 8 (unit not given), replicate column 3 of 3",16125
same,"Fluorescence competitive binding assay, OBP2 (raw fluorescence reading)","SfurOBP2; ligand concentration 10 (unit not given), replicate column 1 of 3",15191
same,"Fluorescence competitive binding assay, OBP2 (raw fluorescence reading)","SfurOBP2; ligand concentration 10 (unit not given), replicate column 2 of 3",14875
same,"Fluorescence competitive binding assay, OBP2 (raw fluorescence reading)","SfurOBP2; ligand concentration 10 (unit not given), replicate column 3 of 3",15159
same,"Fluorescence competitive binding assay, OBP2 (raw fluorescence reading)","SfurOBP2; ligand concentration 12 (unit not given), replicate column 1 of 3",14300
same,"Fluorescence competitive binding assay, OBP2 (raw fluorescence reading)","SfurOBP2; ligand concentration 12 (unit not given), replicate column 2 of 3",14543
same,"Fluorescence competitive binding assay, OBP2 (raw fluorescence reading)","SfurOBP2; ligand concentration 12 (unit not given), replicate column 3 of 3",14192
same,"Fluorescence competitive binding assay, OBP2 (raw fluorescence reading)","SfurOBP2; ligand concentration 14 (unit not given), replicate column 1 of 3",13523
same,"Fluorescence competitive binding assay, OBP2 (raw fluorescence reading)","SfurOBP2; ligand concentration 14 (unit not given), replicate column 2 of 3",13764
same,"Fluorescence competitive binding assay, OBP2 (raw fluorescence reading)","SfurOBP2; ligand concentration 14 (unit not given), replicate column 3 of 3",13447
same,"Fluorescence competitive binding assay, OBP2 (raw fluorescence reading)","SfurOBP2; ligand concentration 16 (unit not given), replicate column 1 of 3",12677
same,"Fluorescence competitive binding assay, OBP2 (raw fluorescence reading)","SfurOBP2; ligand concentration 16 (unit not given), replicate column 2 of 3",12355
same,"Fluorescence competitive binding assay, OBP2 (raw fluorescence reading)","SfurOBP2; ligand concentration 16 (unit not given), replicate column 3 of 3",12095
same,"Fluorescence competitive binding assay, OBP2 (raw fluorescence reading)","SfurOBP2; ligand concentration 18 (unit not given), replicate column 1 of 3",11796
same,"Fluorescence competitive binding assay, OBP2 (raw fluorescence reading)","SfurOBP2; ligand concentration 18 (unit not given), replicate column 2 of 3",11817
same,"Fluorescence competitive binding assay, OBP2 (raw fluorescence reading)","SfurOBP2; ligand concentration 18 (unit not given), replicate column 3 of 3",11503
same,"Fluorescence competitive binding assay, OBP2 (raw fluorescence reading)","SfurOBP2; ligand concentration 20 (unit not given), replicate column 1 of 3",11621
same,"Fluorescence competitive binding assay, OBP2 (raw fluorescence reading)","SfurOBP2; ligand concentration 20 (unit not given), replicate column 2 of 3",11220
same,"Fluorescence competitive binding assay, OBP2 (raw fluorescence reading)","SfurOBP2; ligand concentration 20 (unit not given), replicate column 3 of 3",11057
same,IC50,SfurOBP11,> 20 µM
same,"Fluorescence intensity, fluorescence competitive binding assay, OBP11","SfurOBP11; ligand concentration 2, replicate 1",34795
same,"Fluorescence intensity, fluorescence competitive binding assay, OBP11","SfurOBP11; ligand concentration 2, replicate 2",32362
same,"Fluorescence intensity, fluorescence competitive binding assay, OBP11","SfurOBP11; ligand concentration 2, replicate 3",33570
same,"Fluorescence intensity, fluorescence competitive binding assay, OBP11","SfurOBP11; ligand concentration 4, replicate 1",31605
same,"Fluorescence intensity, fluorescence competitive binding assay, OBP11","SfurOBP11; ligand concentration 4, replicate 2",31826
same,"Fluorescence intensity, fluorescence competitive binding assay, OBP11","SfurOBP11; ligand concentration 4, replicate 3",31807
same,"Fluorescence intensity, fluorescence competitive binding assay, OBP11","SfurOBP11; ligand concentration 6, replicate 1",29600
same,"Fluorescence intensity, fluorescence competitive binding assay, OBP11","SfurOBP11; ligand concentration 6, replicate 2",28910
same,"Fluorescence intensity, fluorescence competitive binding assay, OBP11","SfurOBP11; ligand concentration 6, replicate 3",29255
same,"Fluorescence intensity, fluorescence competitive binding assay, OBP11","SfurOBP11; ligand concentration 8, replicate 1",27040
same,"Fluorescence intensity, fluorescence competitive binding assay, OBP11","SfurOBP11; ligand concentration 8, replicate 2",29546
same,"Fluorescence intensity, fluorescence competitive binding assay, OBP11","SfurOBP11; ligand concentration 8, replicate 3",25961
same,"Fluorescence intensity, fluorescence competitive binding assay, OBP11","SfurOBP11; ligand concentration 10, replicate 1",25687
same,"Fluorescence intensity, fluorescence competitive binding assay, OBP11","SfurOBP11; ligand concentration 10, replicate 2",25600
same,"Fluorescence intensity, fluorescence competitive binding assay, OBP11","SfurOBP11; ligand concentration 10, replicate 3",25774
same,"Fluorescence intensity, fluorescence competitive binding assay, OBP11","SfurOBP11; ligand concentration 12, replicate 1",25617
same,"Fluorescence intensity, fluorescence competitive binding assay, OBP11","SfurOBP11; ligand concentration 12, replicate 2",23726
same,"Fluorescence intensity, fluorescence competitive binding assay, OBP11","SfurOBP11; ligand concentration 12, replicate 3",24242
same,"Fluorescence intensity, fluorescence competitive binding assay, OBP11","SfurOBP11; ligand concentration 14, replicate 1",22896
same,"Fluorescence intensity, fluorescence competitive binding assay, OBP11","SfurOBP11; ligand concentration 14, replicate 2",21710
same,"Fluorescence intensity, fluorescence competitive binding assay, OBP11","SfurOBP11; ligand concentration 14, replicate 3",22816
same,"Fluorescence intensity, fluorescence competitive binding assay, OBP11","SfurOBP11; ligand concentration 16, replicate 1",19721
same,"Fluorescence intensity, fluorescence competitive binding assay, OBP11","SfurOBP11; ligand concentration 16, replicate 2",20050
same,"Fluorescence intensity, fluorescence competitive binding assay, OBP11","SfurOBP11; ligand concentration 16, replicate 3",20211
same,"Fluorescence intensity, fluorescence competitive binding assay, OBP11","SfurOBP11; ligand concentration 18, replicate 1",19470
same,"Fluorescence intensity, fluorescence competitive binding assay, OBP11","SfurOBP11; ligand concentration 18, replicate 2",19537
same,"Fluorescence intensity, fluorescence competitive binding assay, OBP11","SfurOBP11; ligand concentration 18, replicate 3",20671
same,"Fluorescence intensity, fluorescence competitive binding assay, OBP11","SfurOBP11; ligand concentration 20, replicate 1",20038
same,"Fluorescence intensity, fluorescence competitive binding assay, OBP11","SfurOBP11; ligand concentration 20, replicate 2",19843
same,"Fluorescence intensity, fluorescence competitive binding assay, OBP11","SfurOBP11; ligand concentration 20, replicate 3",19956

# — publication PMC6409085, “Three odorant-binding proteins are involved in the behavioral response of Sogatella furcifera to rice plant volatiles” (PeerJ, 2019)
